IC50 data for 26 compounds are collected here from patent EP4670717A1, “PYRROLIDINE-FUSED MYRTANOL DERIVATIVES AS INHIBITORS AND/OR DEGRADERS OF IDO1 UND USE THEREOF” (Max-Planck-Gesellschaft zur Förderung der Wissenschaften …, priority 2024, dated 2025).

Structures are written as SMILES.

T1 sequence (P14902 whole entry): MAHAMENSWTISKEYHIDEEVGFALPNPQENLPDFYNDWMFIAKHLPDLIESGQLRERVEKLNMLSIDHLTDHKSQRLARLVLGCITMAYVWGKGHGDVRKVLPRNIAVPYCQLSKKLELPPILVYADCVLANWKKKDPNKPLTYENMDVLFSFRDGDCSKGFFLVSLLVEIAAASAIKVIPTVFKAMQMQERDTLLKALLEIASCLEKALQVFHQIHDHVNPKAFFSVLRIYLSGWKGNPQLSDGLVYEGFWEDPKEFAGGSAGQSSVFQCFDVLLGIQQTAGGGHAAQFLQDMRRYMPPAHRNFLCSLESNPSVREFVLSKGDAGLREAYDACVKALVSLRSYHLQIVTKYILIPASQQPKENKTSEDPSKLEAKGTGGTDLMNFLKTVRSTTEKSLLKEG

This assay addresses T1, IDO1 (Homo sapiens, UniProt P14902).
T1 construct: BxPC3 cells were seeded in phenol red-free RPMI 1640 medium; endogenous in cells; host or cells: BxPC3 cells stimulated with IFN-γ (50 ng/mL)
In words: Kyn assay in BxPC-3 cells (Kyn levels after IFN-γ and Trp).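 Also: kyn levels expressed relative to DMSO-treated control cells.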 Format: cell-based. Particulars: BxPC-3 cells incubated with IFN-γ, Trp and the compounds for 48 h; read-out: Kyn assay IC50 ± SD.
Protocol: BxPC3 cells were seeded in phenol red-free RPMI 1640 medium in 1536-well or 384-well plates (Greiner #782086, Corning #3770) 24 h prior to the addition of compounds, IFN-γ (50 ng/mL, PeproTech) and L-Trp (380 µM, Sigmal-Aldrich). After 48 h of incubation, first cell viability was accessed by the addition of Hoechst-33342. Afterwards, trichloroacetic acid (TCA, Sigma-Aldrich) was added to a final concentration of 7 % and incubated for 10 min prior to a centrifugation step of 10 min at 1620 × g. Kyn levels were determined by means of the Kyn sensor^7 at a final concentration of 17.5 µM in sensor buffer (50 mM H3PO4 and 120 mM NaCl (pH=1)). Fluorescence intensity (excitation: 535 nm, emission: 595 nm) was measured using a Spectramax Paradigm reader (Molecular Devices). Data were normalized to the values for cells that were treated with DMSO.
For the manual assay, BxPC3 or SKOV3 cells were seeded in clear 96-well or 384-well plates, respectively, 24 h prior to compound treatment and IFN-γ (50 or 5 ng/mL, respectively) and L-Trp (380 µM) addition as described before.^7 48 h after treatment, TCA was added and Kyn levels were detected by means of 2 % w/v of p-DMAB (Ehrlich reagent) in acetic acid as described by Braun et al^29. The absorbance of the Ehrlich reagent was detected at 492 nm and at 650 nm as background control was measured on Spark® multimode microplate plate reader (Tecan, Austria). Kyn levels were determined by subtracting the absorbance value at 650 nm and presented relative to the DMSO control. Dose-response curves and IC50 values were generated and fitted with GraphPad Prism 6.0 (GraphPad software, USA) using four-parameter variable slope non-linear regression curve fit.
Cells were incubated with IFN-γ, Trp and the compounds for 48 h prior to detection of Kyn levels.
As to `CCc1ccc(NC(=O)OC[C@]23CN(S(=O)(=O)c4ccc(C(C)(C)C)cc4)C[C@H]2C[C@H]2C[C@@H]3C2(C)C)cc1` [compound 2, ((3aS,4R,6R,7aS)-2-((4-(tert-butyl)phenyl)sulfonyl)-5,5-dimethyloctahydro-3aH-4,6-methanoisoindol-3a-yl)methyl (4-ethylphenyl)carbamate], the IC50 lay in the range of 1000 to 5000 nM. For `CC(C)(C)c1ccc(S(=O)(=O)N2C[C@H]3C[C@H]4C[C@H](C4(C)C)[C@@]3(COC(=O)Nc3ccccc3)C2)cc1` [compound 6, ((3aS,4R,6R,7aS)-2-((4-(tert-butyl)phenyl)sulfonyl)-5,5-dimethyloctahydro-3aH-4,6-methanoisoindol-3a-yl)methyl phenylcarbamate], the half-maximal inhibitory concentration (IC50) lay within 5000 to 10000 nM. The figure for `Cc1ccc(NC(=O)OC[C@]23CN(S(=O)(=O)c4ccc(C(C)(C)C)cc4)C[C@H]2C[C@H]2C[C@@H]3C2(C)C)c(C)c1` [compound 7, ((3aS,4R,6R,7aS)-2-((4-(tert-butyl)phenyl)sulfonyl)-5,5-dimethyloctahydro-3aH-4,6-methanoisoindol-3a-yl)methyl (2,4-dimethylphenyl)carbamate] is 1000 to 5000 nM; for `CC(C)(C)c1ccc(S(=O)(=O)N2C[C@H]3C[C@H]4C[C@H](C4(C)C)[C@@]3(COC(=O)Nc3ccc(Cl)cc3)C2)cc1` [compound 9, ((3aS,4R,6R,7aS)-2-((4-(tert-butyl)phenyl)sulfonyl)-5,5-dimethyloctahydro-3aH-4,6-methanoisoindol-3a-yl)methyl (4-chlorophenyl)carbamate] it is 200 to 1000 nM. The figure for `CC(C)(C)c1ccc(S(=O)(=O)N2C[C@H]3C[C@H]4C[C@H](C4(C)C)[C@@]3(COC(=O)Nc3ccc(Br)cc3)C2)cc1` [compound 10, ((3aS,4R,6R,7aS)-2-((4-(tert-butyl)phenyl)sulfonyl)-5,5-dimethyloctahydro-3aH-4,6-methanoisoindol-3a-yl)methyl (4-bromophenyl)carbamate] is 200 to 1000 nM. In the case of `CC(C)(C)c1ccc(S(=O)(=O)N2C[C@H]3C[C@H]4C[C@H](C4(C)C)[C@@]3(COC(=O)Nc3ccccc3I)C2)cc1` [compound 12, ((3aS,4R,6R,7aS)-2-((4-(tert-butyl)phenyl)sulfonyl)-5,5-dimethyloctahydro-3aH-4,6-methanoisoindol-3a-yl)methyl (2-iodophenyl)carbamate], the half-inhibitory concentration (IC50) was in the range of 200 to 1000 nM. `CC(C)(C)c1ccc(S(=O)(=O)N2C[C@H]3C[C@H]4C[C@H](C4(C)C)[C@@]3(COC(=O)Nc3ccccc3Br)C2)cc1` [compound 13, ((3aS,4R,6R,7aS)-2-((4-(tert-butyl)phenyl)sulfonyl)-5,5-dimethyloctahydro-3aH-4,6-methanoisoindol-3a-yl)methyl (2-bromophenyl)carbamate]: the IC50 lay within 200 to 1000 nM. Next, `CC(C)(C)c1ccc(S(=O)(=O)N2C[C@H]3C[C@H]4C[C@H](C4(C)C)[C@@]3(COC(=O)Nc3cccc(Br)c3)C2)cc1` [compound 14, ((3aS,4R,6R,7aS)-2-((4-(tert-butyl)phenyl)sulfonyl)-5,5-dimethyloctahydro-3aH-4,6-methanoisoindol-3a-yl)methyl (3-bromophenyl)carbamate]: 5000 to 10000 nM. Consider `CC(C)(C)c1ccc(S(=O)(=O)N2C[C@H]3C[C@H]4C[C@H](C4(C)C)[C@@]3(COC(=O)Nc3ccc(C#CCCO)cc3)C2)cc1` [compound 18, ((3aS,4R,6R,7aS)-2-((4-(tert-butyl)phenyl)sulfonyl)-5,5-dimethyloctahydro-3aH-4,6-methanoisoindol-3a-yl)methyl (4-(4-hydroxybut-1-yn-1-yl)phenyl)carbamate], for which the half-inhibitory concentration (IC50) was 1000 to 5000 nM. Regarding `COc1ccc(NC(=O)OC[C@]23CN(S(=O)(=O)c4ccc(C(C)(C)C)cc4)C[C@H]2C[C@H]2C[C@@H]3C2(C)C)cc1` [compound 20, ((3aS,4R,6R,7aS)-2-((4-(tert-butyl)phenyl)sulfonyl)-5,5-dimethyloctahydro-3aH-4,6-methanoisoindol-3a-yl)methyl (4-methoxyphenyl)carbamate], the IC50 is 1000 to 5000 nM. `CC(C)(C)c1ccc(S(=O)(=O)N2C[C@H]3C[C@H]4C[C@H](C4(C)C)[C@@]3(COC(=O)Nc3ccc(C#N)cc3)C2)cc1` [compound 23, ((3aS,4R,6R,7aS)-2-((4-(tert-butyl)phenyl)sulfonyl)-5,5-dimethyloctahydro-3aH-4,6-methanoisoindol-3a-yl)methyl (4-cyanophenyl)carbamate]: the half-inhibitory concentration (IC50) was 1000 to 5000 nM. The figure for `Cc1ccc(NC(=O)OC[C@]23CN(S(=O)(=O)C(C)C)C[C@H]2C[C@H]2C[C@@H]3C2(C)C)cc1` [compound 30, ((3aS,4R,6R,7aS)-2-(isopropylsulfonyl)-5,5-dimethyloctahydro-3aH-4,6-methanoisoindol-3a-yl) methyl p-tolylcarbamate] is 1000 to 5000 nM; for `Cc1ccc(NC(=O)OC[C@]23CN(S(=O)(=O)C4CCCCC4)C[C@H]2C[C@H]2C[C@@H]3C2(C)C)cc1` [compound 31, ((3aS,4R,6R,7aS)-2-(cyclohexylsulfonyl)-5,5-dimethyloctahydro-3aH-4,6-methanoisoindol-3a-yl)methyl p-tolylcarbamate] it is 5000 to 10000 nM. The figure for `Cc1ccc(NC(=O)OC[C@]23CN(S(=O)(=O)c4ccc(C(F)(F)F)cc4)C[C@H]2C[C@H]2C[C@@H]3C2(C)C)cc1` [compound 32, ((3aS,4R,6R,7aS)-5,5-dimethyl-2-((4-(trifluoromethyl)phenyl)sulfonyl)octahydro-3aH-4,6-methanoisoindol-3a-yl)methyl p-tolylcarbamate] is 1000 to 5000 nM. The figure for `Cc1ccc(NC(=O)OC[C@]23CN(S(=O)(=O)c4ccc(OC(F)(F)F)cc4)C[C@H]2C[C@H]2C[C@@H]3C2(C)C)cc1` [compound 34, ((3aS,4R,6R,7aS)-5,5-dimethyl-2-((4-(trifluoromethoxy)phenyl)sulfonyl)octahydro-3aH-4,6-methanoisoindol-3a-yl)methyl p-tolylcarbamate] is 1000 to 5000 nM.

Regarding `Cc1ccc(NC(=O)OC[C@]23CN(S(=O)(=O)c4ccc(C5(C(F)(F)F)N=N5)cc4)C[C@H]2C[C@H]2C[C@@H]3C2(C)C)cc1` [compound 35, ((3aS,4R,6R,7aS)-5,5-dimethyl-2-((4-(3-(trifluoromethyl)-3H-diazirin-3-yl)phenyl)sulfonyl)octahydro-3aH-4,6-methanoisoindol-3a-yl)methyl p-tolylcarbamate], the IC50 fell in the range of 1000 to 5000 nM.

On to `Cc1ccc(NC(=O)OC[C@]23CN(S(=O)(=O)c4ccccc4Br)C[C@H]2C[C@H]2C[C@@H]3C2(C)C)cc1` [compound 36, ((3aS,4R,6R,7aS)-2-((2-bromophenyl)sulfonyl)-5,5-dimethyloctahydro-3aH-4,6-methanoisoindol-3a-yl)methyl p-tolylcarbamate], for which the concentration for half-maximal inhibition (IC50) fell in the range of 5000 to 10000 nM. The figure for `CC1(C)[C@H]2C[C@@H]3CN(S(=O)(=O)c4ccccc4)C[C@]3(COC(=O)Nc3ccc(I)cc3)[C@@H]1C2` [compound 37, ((3aS,4R,6R,7aS)-5,5-dimethyl-2-(phenylsulfonyl)octahydro-3aH-4,6-methanoisoindol-3a-yl)methyl (4-iodophenyl)carbamate] is 1000 to 5000 nM; for `CC1(C)[C@H]2C[C@@H]3CN(S(=O)(=O)c4ccc5ccccc5c4)C[C@]3(COC(=O)Nc3ccc(I)cc3)[C@@H]1C2` [compound 38, ((3aS,4R,6R,7aS)-5,5-dimethyl-2-(naphthalen-2-ylsulfonyl)octahydro-3aH-4,6-methanoisoindol-3a-yl)methyl (4-iodophenyl)carbamate] it is 200 to 1000 nM; for `Cc1ccccc1S(=O)(=O)N1C[C@H]2C[C@H]3C[C@H](C3(C)C)[C@@]2(COC(=O)Nc2ccc(I)cc2)C1` [compound 39, ((3aS,4R,6R,7aS)-5,5-dimethyl-2-(o-tolylsulfonyl)octahydro-3aH-4,6-methanoisoindol-3a-yl)methyl (4-iodophenyl)carbamate] it is 200 to 1000 nM. In the case of `Cc1cccc(S(=O)(=O)N2C[C@H]3C[C@H]4C[C@H](C4(C)C)[C@@]3(COC(=O)Nc3ccc(I)cc3)C2)c1` [compound 40, ((3aS,4R,6R,7aS)-5,5-dimethyl-2-(m-tolylsulfonyl)octahydro-3aH-4,6-methanoisoindol-3a-yl)methyl (4-iodophenyl)carbamate], the half-inhibitory concentration (IC50) lay within 1000 to 5000 nM. The figure for `Cc1ccc(S(=O)(=O)N2C[C@H]3C[C@H]4C[C@H](C4(C)C)[C@@]3(COC(=O)Nc3ccc(I)cc3)C2)cc1` [compound 41, ((3aS,4R,6R,7aS)-5,5-dimethyl-2-tosyloctahydro-3aH-4,6-methanoisoindol-3a-yl)methyl (4-iodophenyl)carbamate] is 200 to 1000 nM; for `CC(C)c1ccc(S(=O)(=O)N2C[C@H]3C[C@H]4C[C@H](C4(C)C)[C@@]3(COC(=O)Nc3ccc(I)cc3)C2)cc1` [compound 43, ((3aS,4R,6R,7aS)-2-((4-isopropylphenyl)sulfonyl)-5,5-dimethyloctahydro-3aH-4,6-methanoisoindol-3a-yl)methyl (4-iodophenyl)carbamate] it is less than 200 nM.

`CC1(C)[C@H]2C[C@@H]3CN(S(=O)(=O)c4ccc(-c5ccccc5)cc4)C[C@]3(COC(=O)Nc3ccc(I)cc3)[C@@H]1C2` [compound 44, ((3aS,4R,6R,7aS)-2-([1,1'-biphenyl]-4-ylsulfonyl)-5,5-dimethyloctahydro-3aH-4,6-methanoisoindol-3a-yl)methyl (4-iodophenyl)carbamate]: the IC50 lay in the range of 200 to 1000 nM. The figure for `CC1(C)[C@H]2C[C@@H]3CN(S(=O)(=O)c4ccc(C5CCCCC5)cc4)C[C@]3(COC(=O)Nc3ccc(I)cc3)[C@@H]1C2` [compound 45, ((3aS,4R,6R,7aS)-2-((4-cyclohexylphenyl)sulfonyl)-5,5-dimethyloctahydro-3aH-4,6-methanoisoindol-3a-yl)methyl (4-iodophenyl)carbamate] is 1000 to 5000 nM; for `CC1(C)CCC(C)(C)c2cc(S(=O)(=O)N3C[C@H]4C[C@H]5C[C@H](C5(C)C)[C@@]4(COC(=O)Nc4ccc(I)cc4)C3)ccc21` [compound 46] it is 200 to 1000 nM.
